# US20260242839A1, “GLYCOSIDE PRODUCT BIOSYNTHESIS AND RECOVERY” (Manus Bio Inc., priority 2023, published 2026)
# Tests used:
# [1] = maximum solubility of RebM in fermentation broth; assay type: physicochemical
# Method: Fermentation broth was held at a constant temperature of 70° C. and subjected to different treatments as described in Table 7. RebM was slowly added with constant stirring to determine the maximum solubility of RebM.
# [2] = cited from earlier work
# [3] = system: Mog. IIE or Mog. IE; assay: branched glycosylation reactions by cells expressing UGT enzymes; assay type: cell-based, E. coli; details: Mog. IIE or Mog. IE fed; 37° C., 48 hr; LC-MS/MS
# Method: Mog. IIE or Mog. IE was fed to cells expressing various UGT enzymes. Reactions were incubated at 37° C. for 48 hr. Products were quantified by LC-MS/MS with authentic standards of each compound. “Indirect” evidence means that consumption of substrate was observed.
# [4] = system: Mog. I-E; assay: production of Mog. II-A2 from Mog. I-E; assay type: cell-based, E. coli; details: 37° C., 48 hr; FIG. 20
# Method: II-A2. Mog. I-E was fed in vitro. In the experiment, engineered E. coli strains (chassis strain) expressing UGT enzyme SEQ ID NO: 73 were incubated at 37° C. for 48 hr. Products were quantified by LC-MS/MS with authentic standards of each compound. […] IE to Mog. II-A2.
molecule,measurement,setting,value
"C=C1C[C@@]23CC[C@H]4[C@@](C)(CCC[C@@]4(C)C(=O)O[C@@H]4O[C@H](CO)[C@@H](O)[C@H](O[C@@H]5O[C@H](CO)[C@@H](O)[C@H](O)[C@H]5O)[C@H]4O[C@@H]4O[C@H](CO)[C@@H](O)[C@H](O)[C@H]4O)[C@@H]2CC[C@]1(O[C@@H]1O[C@H](CO)[C@@H](O)[C@H](O[C@@H]2O[C@H](CO)[C@@H](O)[C@H](O)[C@H]2O)[C@H]1O[C@@H]1O[C@H](CO)[C@@H](O)[C@H](O)[C@H]1O)C3 [RebM, rebaudioside M]",RebM solubility,"[1]; pH 3.5, 70.8 ° C., no small molecule enhancer",68.9 mg/mL
same,RebM solubility,"[1]; pH 7, 70.8 ° C., Glycerol 0.5 wt %",119.0 mg/mL
same,RebM solubility,"[1]; pH 7, 70.8 ° C., no small molecule enhancer",29.9 mg/mL
same,RebM solubility,"[1]; pH 11.6, 70.8 ° C., 1,3-Propanediol 0.5 wt %",151.3 mg/mL
same,RebM solubility,"[1]; pH 11.6, 70.8 ° C., Glycerol 0.5 wt %",151.3 mg/mL
same,times more potent than sucrose,"[2]; estimated, Prakash et al. 2014",200-350 times
C[C@H](CC[C@@H](O[C@@H]1O[C@H](CO[C@@H]2O[C@H](CO)[C@@H](O)[C@H](O)[C@H]2O)[C@@H](O)[C@H](O)[C@H]1O[C@@H]1O[C@H](CO)[C@@H](O)[C@H](O)[C@H]1O)C(C)(C)O)[C@H]1CC[C@@]2(C)[C@@H]3CC=C4[C@@H](CC[C@H](O[C@@H]5O[C@H](CO[C@@H]6O[C@H](CO)[C@@H](O)[C@H](O)[C@H]6O)[C@@H](O)[C@H](O)[C@H]5O)C4(C)C)[C@]3(C)[C@H](O)C[C@]12C [mogroside V],"sweetening capacity, times that of sucrose",[2]; Kasai et al. 1989,~ 250 times
"SEQ ID NO: 73: HvUGT_B3 (Hordeum vulgare subsp. Vulgare) (protein, Hordeum vulgare) MAEANDGGKMHVVMLPWLAFGHVLPFTEFAKRVARQGHRVTLLSAPRNTRRLIDIPPGLAGLIRVVHVPLPRVDGLPEHAEATIDLPSDHLRPCLRRAFDAAFERELSRLLQEEAKPDWVLVDYASYWAPTAAARHGVPCAFLSLFGAAALSFFGTPETLLGIGRHAKTEPAHLTVVPEYVPFPTTVAYRGYEARELFEPGMVPDDSGVSEGYRFAKTIEGCQLVGIRSSSEFEPEWLRLLGELYRKPVIPVGLFPPAPQDDVAGHEATLRWLDGQAPSSVVYAAFGSEVKLTGAQLQRIALGLEASGLPFIWAFRAPTSTETGAASGGLPEGFEERLAGRGVVCRGWVPQVKFLAHASVGGFLTHAGWNSIAEGLAHGVRLVLLPLVFEQGLNARNIVDKNIGVEVARDEQDGSFAAGDIAAALRRVMVEDEGEGFGAKVKELAKVFGDDEVNDQCVREFLMHLSDHSKKNQGQD",C3 1-2,[3],No
same,C3 1-6,[3],Yes
same,C24 1-2,[3],No
same,C24 1-6,[3],Yes
same,bioconversion of Mog. IE to Mog. II-A2,[4],able to catalyze bioconversion of Mog. IE to Mog. II-A2
